In US20240342166A1, “PHARMACEUTICAL COMPOSITION FOR PREVENTING OR TREATING TUMOR, AND USE THEREOF” (TIUMBIO CO., LTD., priority 2021, published 2024):

Key:
[1] = tested on: WEHI-164 cell lines (Murine sarcoma cells); experiment: Sarcoma mouse model (Example 3); assay type: in vivo; conditions: Compound 1 50 mg/kg twice a day p.o.
Method: (§1) 60 female BALB/C mice, 6-8 weeks old, were purchased from Vital River Laboratories Research Model and Services Company.
Drugs were administered from Day 7 to Day 23 from the WEHI-164 cell line transplantation date.
The difference in tumor volumes during the study period was statistically analyzed using one-tailed t-test, ANOVA and Tukey's multiple comparison test.

[2] = tested on: 4T1 cell lines (Murine breast cancer cells); experiment: Breast cancer mouse model (Example 4); assay type: in vivo; conditions: Day 23 from the cell line inoculation date; Compound 1 50 mg/kg twice a day p.o.; anti-PD-1 or anti-CTLA-4 antibody 10 mg/kg every three days i.p.
Text: as §1
The difference in tumor volumes was statistically analyzed using ANOVA and Tukey's multiple comparison test.

[3] = tested on: MBT2 cell lines (Murine bladder cancer cells); experiment: Bladder cancer mouse model (Example 5); conditions: tumor volume on Day 30 from the cell line inoculation date; responder = tumor volume less than 1/4 of 1,500 mm^3; Compound 1 alone 15 mg/kg twice a day, in combination 50 mg/kg twice a day p.o.; anti-PD-1 antibody 12.5 mg/kg twice a week i.p.
Method: C3H/HeN female mice, 7 weeks old, were purchased from OrientBio. 2.5×10^5 MBT2 cell lines (Murine bladder cancer cells) were injected subcutaneously into the right flank of each mouse to transplant a cancer cell line. The MBT2 cell line transplantation date was determined as Day 0, and the tumor volume was measured on Day 6.
A 0.9% physiological saline solution was prepared as a vehicle, and a mixed solution of an anti-PD-1 antibody (BioXCell) and PBS, and a mixed solution of Compound 1 and the vehicle were prepared as study drugs.
The mice selected in Example 5.1 were assigned to a control group, a group in which an anti-PD-1 antibody was administered, a group in which Compound 1 was administered, or a group in which Compound 1 was administered in combination with an anti-PD-1 antibody, respectively. Drugs were administered from Day 6 to Day 28 from the MBT2 cell line transplantation date.
The mouse tumor volume and weight were measured three times a week during the study period after the drug administration. The tumor volume was measured by the same method as the method for measuring the tumor volume in Example 1.1.2.

[4] = tested on: human peripheral blood mononuclear cells (hPBMCs); experiment: In vitro IFN-γ secretion in TGF-β-inhibited, anti-CD3/anti-CD28-stimulated hPBMCs (ELISA); assay type: cell-based; conditions: treated with anti-CD3 antibodies, anti-CD28 antibodies and TGF-β; stimulated for 72 hours; IFN-γ ELISA of supernatants
Method: A 6-well plate was coated with anti-CD3 monoclonal antibodies (OKT3) at 4° C. overnight. Each well of the 6-well plate was suctioned with an antibody solution, and washed using PBS. hPBMCs were plated on the coated 6-well plate. In order to increase the reactivity of hPBMCs, culturing was performed for 5 days under the conditions of 37° C., 5% carbon dioxide humidification incubator. The hPBMCs cultured for 5 days were inoculated in a 96-well plate at a concentration of 1×10^5 cells/well. The hPBMCs inoculated in the 96-well plate were treated with lenvatinib or Compound 1 and the hPBMCs were incubated for 1 hour, then TGF-β was added thereto and the hPBMCs were cultured for 1 hour. […] After 72 hours, the supernatants were recovered and conventional IFN-γ ELISA was performed. The IFN-γ content generated for each group was measured. Data analysis was performed using Prism 5 (GraphPad Software, Inc.), and statistical analysis was performed using One-way ANOVA and Tukey's multiple comparison.

[5] = tested on: CT26 cell lines (Murine colon cancer cells); experiment: Colorectal cancer mouse model (Example 2); assay type: in vivo; conditions: Day 26 from the drug administration date; groups without anti-CTLA-4 antibody; Compound 1 50 mg/kg twice a day p.o.; anti-PD-1 antibody 10 mg/kg once every three days i.p.; lenvatinib 10 mg/kg p.o.
Method: 170 female BALB/C mice, which were 6-8 weeks old, were purchased from OrientBio, and cancer cell lines were transplanted by subcutaneously injecting 7.5×10^5 CT26 cell lines (Murine colon cancer cells) into the right flank of each mouse.
The mice selected in Example 2.1 were assigned to the groups listed in Table 4 below, and vehicles or drugs were administered, and drug administration was initiated on Day 7 from the cell line inoculation date, and the study was terminated on Day 27 from the drug administration date.
In this case, the mouse tumor volume was calculated by the same method as the tumor volume calculation method of Example 1.1.2.
Tumor volume changes and weight changes for each group were statistically analyzed using Two-way ANOVA test, Bonferroni test, and one-tailed t-test.

B16F10 cell lines = experiment: Melanoma mouse model, anti-PD-1 antibody and Compound 1 (Example 1.1); assay type: in vivo; conditions: Day 15 from the drug administration date; C57BL/6 mice; Compound 1 50 mg/kg twice a day p.o.; anti-PD-1 antibody 10 mg/kg once every three days i.p.
Text: 40 female C57BL/6 mice, which were 6-8 weeks old, were purchased from OrientBio, and 1×10^6 B16F10 cell lines (KCLB, #80008) were subcutaneously injected into the right flank of each mouse, thereby transplanting the cancer cell lines thereto.
The mice were classified according to the mean and deviation of the tumor volume on Day 9.
A change in tumor volume for each group was statistically analyzed using Two-way ANOVA test.

Row | SMILES | complete remission rate of the tumor ([1]; anti-CTLA-4 antibody 10 mg/kg once a week i.p., compared to the vehicle control group) [%] | tumor volume smaller than the tumor volume of the control group ([1]; Day 16 from the drug administration initiation date, anti-PD-1 antibody 10 mg/kg once a week i.p.) [%] | tumor volume reduced compared to the tumor volume of the control group [2] [%] | Response individual ratio (percent) [3] [%] | Response individual ratio (responders/mice) [3] | secretion of IFNγ in human PBMCs [4] | drop in tumor volume compared to the tumor volume of the control group (vehicle) [5] [%] | tumor volume lower than the tumor volume measured in the control group (B16F10 cell lines) [%]
1 | Cc1cccc(-c2nc3n(c2-c2ccc4ncnn4c2)CCN3)n1.O=P(O)(O)O [Compound 1, 6-(6-(6-methylpyridine-2-yl)-2,3-dihydro-1H-imidazo[1,2-a]imidazol-5-yl)-[1,2,4]triazole[1,5-a]pyridine phosphate] | 30 | 71 | 16 | 9 | 1/11 | increased secretion of IFNγ | 59 | 44
2 | COc1cc2nccc(Oc3ccc(NC(=O)NC4CC4)c(Cl)c3)c2cc1C(N)=O [lenvatinib, reference compound] | – | – | – | – | – | increased secretion of IFNγ | 30 | –
